This note sets out measurements from paper PMC10899660, “Global fungal-host interactome mapping identifies host targets of candidalysin” (Nature Communications, 2024).

In series [1] the target is T1, Cyclin H (CCNH) (Homo sapiens, UniProt P51946).
T1 construct: purchased Sino Biological Inc. Lot; ME12NO2769 (a lot number; catalogue number not given); host or cells: E. coli
T1 sequence (P51946 1-323): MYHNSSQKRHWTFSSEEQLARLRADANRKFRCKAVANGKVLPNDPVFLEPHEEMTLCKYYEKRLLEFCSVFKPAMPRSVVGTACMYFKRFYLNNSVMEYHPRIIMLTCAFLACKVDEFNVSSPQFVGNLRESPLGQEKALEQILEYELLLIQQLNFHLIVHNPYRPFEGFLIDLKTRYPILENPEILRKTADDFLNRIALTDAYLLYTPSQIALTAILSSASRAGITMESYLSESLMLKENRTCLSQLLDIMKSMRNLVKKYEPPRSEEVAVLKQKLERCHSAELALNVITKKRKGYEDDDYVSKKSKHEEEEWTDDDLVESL
Put plainly: Surface plasmon resonance (SPR) on BIAcore. The note with it: binding to CCNH; for kon: association rate, read-out: Ka. The method, then: Recombinant Cyclin H (CCNH) protein with a C-HIS tag (Lot. ME12NO2769, 38.46 kDa) was obtained from Sino Biological Inc. and stored at −80 °C. In short, the cyclin H (Homo sapiens) gene was amplified by PCR and cloned into an expression vector which was transformed into E. coli followed by the selection and establishment of high expression transformants. The protein was purified using immobilized metal ion affinity chromatography and dissolved in PBS (pH 7.4). SPR measurement was performed with Biacore T200 instrument (GE), at 25 °C, with a flow rate of 30 μL/min. CM5 sensor chips, HBS-EP running buffer and the Amine Coupling Kit, including 1-ethyl-3(3-dimethylaminopropyl) carbodiimide hydrochloride (EDC), N-hydroxysuccinimide (NHS), 1.0 M ethanolamine-HCl (pH 8.5) were purchased from GE. The binding properties of candidalysin to CCNH were evaluated upon immobilization of CCNH onto CM5 chip surface in flow cell 2 (FC-2) using Biacore Amine Coupling Kit according to the manufacturer’s instructions. CCNH was diluted to 20 μg/ml in acetate buffer (pH 4.0) in advance and immobilized on the CM5 Chip following the EDC/NHS protocol. The reached immobilized target level was 1200 RU. The reference flow cell (FC-1) was blank-immobilized following the templated procedure. BIAcore measurements were performed starting from a 1:1 serial dilution of candidalysin following the templated multicycle analysis (association time 120 s, dissociation time 150 s, flow 30 μL/min). The SPR measurement for Ece1-II, Ece1-IV, Ece1-V and human cathelicidin (Solarbio, CLP0454) to CCNH were performed with Biacore 8 K instrument (GE) by PBST running buffer, and the other conditions were the same.
(In general: Surface plasmon resonance follows binding to a sensor surface in real time, without labels.)

In series [2] the test system is FaDu cells. Description: Western blot of CCNH and γ-H2AX, FaDu cells. The series is classed as cell-based. The note with it: comparison toxins / low-dose Triton X-100. How it is done: (§1) Cells were lysed with cell lysis buffer (Beyotime, #P0013) on ice for 30 min. The supernatant of cell lysate was then collected in a table-top refrigerated centrifuge at 4 °C and 14,000 × g for 10 min. Protein concentration was determined by Pierce™ BCA Protein Assay Kit (Thermo Scientific™, #23227). Antibodies against the following proteins were used for Western blotting analysis: CCNH antibody (CST,Rabbit Source, Cat#2927, 1:1000 dilution), gama-H2AX antibody (CST, Rabbit Source, Cat#97185, 1:1000 dilution), GAPDH (D16H11) XP® Rabbit mAb (CST, Rabbit Source, Cat#5174 S, 1:1000 dilution), Anti-CDK2 (phospho T160) + CDK1 (phospho T161) antibody (Abcam, Rabbit Source, Cat#EPR17621, 1:1000 dilution), Anti-rabbit IgG, HRP-linked Antibody (CST, Goat Source, Cat#7074, 1:5000 dilution), […] Tag (D6W5B) Rabbit mAb (CST, Rabbit Source, Cat#14793, 1:1000 dilution), GFP (4B10) Mouse mAb (CST, Mouse Source, Cat #2955, 1:1000 dilution), Anti-mouse IgG,HRP-linked antibody (CST, Goat Source, Cat#7076, 1:5000 dilution). Membranes were treated with SuperSignal™ West Pico PLUS Chemiluminescent Substrate (Thermo Scientific™, #34577) prior to visualization in the Chemiluminescence Imaging Analysis System (BG-gdsAUTO720, Baygene). GAPDH was used as the loading control.
For orientation: A western blot detects proteins with antibodies after separation by electrophoresis.

The test system of series [3] is A549 cells. Description: Western blot of CCNH and γ-H2AX, A549 and CCNH-KD A549 cells. The conditions noted are these: A549, 10 μM, 4 h. The series is classed as cell-based. How it is done: as §1

Ends that are not written are not given here.

For FKRIVQRIKDFLRNLVPRTES [Amp], the kon in series [1] is 3040 M⁻¹ s⁻¹. This compound also had an equilibrium dissociation constant (Kd) in series [1] (column pK, row KD (M)) of 6.26e-05 M.
For the compound Triton X-100, in series [2], the “DNA damage (CCNH and γ-H2AX expression)” value is reported as “failed to induce severe DNA damage”.
With `CN(C)C/C=C/C(=O)Nc1ccc(C(=O)Nc2cccc(Nc3ncc(Cl)c(-c4c[nH]c5ccccc45)n3)c2)cc1` [THZ1], the “CCNH and γ-H2AX expression” value in series [3] was “prominently elevated CCNH and γ-H2AX expression”.
For `CC[C@H](C)[C@H](NC(=O)CNC(=O)[C@H](C)NC(=O)[C@@H](NC(=O)[C@@H](NC(=O)[C@H](CO)NC(=O)[C@H](CC(=O)O)NC(=O)[C@@H](NC(=O)[C@H](CC(=O)O)NC(=O)[C@@H](N)CCC(=O)O)[C@@H](C)CC)C(C)C)C(C)C)C(=O)N[C@H](C(=O)N[C@@H](C)C(=O)N[C@@H](CC(=O)O)C(=O)N[C@@H](CCSC)C(=O)N1CCC[C@H]1C(=O)N[C@@H](Cc1ccccc1)C(=O)N[C@H](C(=O)N[C@H](C(=O)N[C@@H](CCCNC(=N)N)C(=O)N[C@@H](C)C(=O)N[C@H](C(=O)N[C@@H](CC(=O)O)C(=O)N[C@H](C(=O)N[C@@H](C)C(=O)N[C@@H](CCSC)C(=O)N[C@H](C(=O)N[C@@H](CO)C(=O)N[C@H](C(=O)N[C@@H](C)C(=O)N[C@@H](CO)C(=O)N[C@H](C(=O)N[C@@H](CCCCN)C(=O)N[C@@H](CCCNC(=N)N)C(=O)O)[C@@H](C)O)C(C)C)[C@@H](C)O)[C@@H](C)O)C(C)C)C(C)C)C(C)C)[C@@H](C)CC` [Ece1-IV], the kon in series [1] was determined as 49.8 M⁻¹ s⁻¹.
Same read-out and setting: the same measure for `CC[C@H](C)[C@H](NC(=O)[C@H](CO)NC(=O)[C@H](CCC(N)=O)NC(=O)[C@H](CCC(N)=O)NC(=O)[C@@H](NC(=O)CNC(=O)[C@@H](NC(=O)[C@H](C)NC(=O)[C@@H](NC(=O)[C@H](CCCNC(=N)N)NC(=O)[C@H](C)NC(=O)[C@@H](NC(=O)[C@@H](NC(=O)[C@H](CCC(=O)O)NC(=O)[C@@H]1CCCN1C(=O)[C@H](CC(C)C)NC(=O)[C@H](CCCNC(=N)N)NC(=O)[C@@H](NC(=O)[C@@H](NC(=O)[C@H](C)NC(=O)[C@H](CC(N)=O)NC(=O)[C@H](C)NC(=O)[C@@H](NC(=O)[C@H](CC(=O)O)NC(=O)[C@H](CC(=O)O)NC(=O)[C@H](CC(N)=O)NC(=O)[C@H](C)NC(=O)CNC(=O)[C@@H](N)CC(=O)O)C(C)C)C(C)C)C(C)C)[C@@H](C)CC)C(C)C)C(C)C)[C@@H](C)O)C(C)C)C(=O)N[C@@H](CCC(=O)O)C(=O)N[C@@H](CC(N)=O)C(=O)N[C@@H](C)C(=O)N[C@@H](CCCCN)C(=O)N[C@@H](CCCNC(=N)N)C(=O)O` [Ece1-V]: 228 M⁻¹ s⁻¹.
For mellitin: pore forming toxin, the “DNA damage (CCNH and γ-H2AX expression)” value in series [2] was “failed to induce severe DNA damage”.

Broadly, the Kd is the equilibrium constant for the complex coming apart. A lower Kd goes with tighter binding.
